Like-named read-outs stand apart in the source and are kept apart here.

For series [1] the following is noted: pH 7, cited from earlier work.
The next series has as its system Alfalfa seeds. Briefly: Pot test: germination of alfalfa seeds on treated soil. The format is in vivo. From the text: The effectiveness of these granular materials in preventing the germination of alfalfa seeds was used as an assay of the continued performance of the 2,4-D admixed with the melamine compositions. As long as significant quantities of 2,4-D are present, alfalfa seed will not germinate completely. When the alfalfa seeds receiving the treatment germinate comparably to seeds which received no treatment, the period of effectiveness of the 2,4-D has ended.
Alfalfa seeds (1 gram) were planted on the surface of sieved unsterile compost soil in 2½ in. x 2½ in. (6.3 cm x 6.3 cm) plastic pots. Each test pot stood in a plastic saucer in order to avoid contamination between pots. After introduction of the seeds, the pots were well watered from the top and covered with another plastic dish until germination was established. This avoided unnecessary drying out of the soil and maintained an intimate moist atmosphere for seed germination. All test pots were kept in a controlled temperature room at 70°F for the duration of the trial. After germination was established the covers were removed to avoid any restriction of seedling growth. Seeds and plants were monitored daily, watered evenly as necessary, and growth changes recorded.
A series of four pot treatments was set up as follows: • (a) control pots to which no chemical was applied; • (b) 2,4-D alone (applied at a rate equivalent to 22.7 kg of 2,4-D/ ha ); • (c) 2,4-D/melamine granules of Example 1 (applied at a rate equivalent to 22.7 kg of 2,4-D/ha ); and • (d) melamine granules (not containing 2,4-D) in an amount equal to that used in treatment (c).
The melamine/binder ratio was essentially the same in the granules used in treatments (c) and (d), the difference being in the presence or absence of 2,4-D. The granules were used by distributing them over the soil surfaces in the pots.
For each treatment, replicates of three pots were set up in four groups (A), (B), (C) and (D) so that alfalfa seeds could be planted on undisturbed soil for each of the following three weeks. All pots in each series were treated equally from the outset with respect to applied material, watering and light. The experiment was started when the treatments were applied to all of the pots by sprinkling the applied material on the surface of the soil, and pots (A) were planted. One week later, alfalfa seeds were planted in pots (B). Another week later, pots (C) were planted with alfalfa seeds and finally three weeks after application of the chemicals, pots (D) were planted with alfalfa seeds.
The pots in the four groups of pots A, B, C and D thus were treated at the same time, some pots receiving treatment (a): no chemical applied, to provide a control; some treatment (b): 2,4-D alone applied; and so on. […]

For a further series, the system named is Douglas-fir seedlings. Briefly: Pot test with Douglas-fir seedlings: seedling height growth. The class given is in vivo. As to conditions: Fig. 4: 24 weeks after the treatment date. The text has this:
(§1) The following granular herbicide formulations were used: • (a) 2,4-D 5%, melamine 71%, urea 24% • (b) 2,4-D 4.7%, melamine 88.1%, resin solids 7.2% • (c) 2,4-D/KL (a controlled release formulation of 2,4-D with kraft lignin 10%, melamine 72%, urea 18% • (d) Velpar® herbicide 5.35%, melamine 90.35%, resin solids 4.3% (V/MI) • (e) b and d, applied together • (f) control, no treatment • (g) technical 2,4-D treatment
(§2) Douglas-fir seedlings (2.0) were planted in 10" (25 cm) diameter pots. Each of the above five granule treatments was applied to three potted firs. Two control sets of potted seedlings had respectively no treatment, and an application of commercial 2,4-D, for comparison. In the application of the commercial 2,4-D, the fine powdered material was applied evenly to the soil surface, using the same 2,4-D material employed in making the granular formulations.
(§3) The 2,4-D was applied in all sets at the equivalent rate of 22.7 kg ai/ha and the Velpar® herbicide at 23.8 kg ai/ha (ai = active ingredient).
(§4) These sets were monitored for seedling height growth, growth quality of the seedling, and weed growth surrounding the seedling, represented as a % of soil surface.
In the drawings, Figs. 1 and 3 compare the weed growth observed following soil treatment, using the pot-planted Douglas fir seedlings. […]

Series [2] is described as follows: Rate of release from granules in dialysis tubing into a water bath. The format is physicochemical. As to conditions: after 8-9 days. The protocol:
Each of these formulations was made up into granules that were screened to fall within the size range of 0.84 to 1.41 mm.
In order to make measurements on the amount of herbicide released from each set of granules, a sample was taken of each. The sample was placed in dialysis tubing. The tubing was submerged in a covered container of distilled water containing 10 liters of water at 22°C. The solution was agitated and 10 ml. aliquots were removed at appropriate times.
The aliquots were subjected to analyses by an ultra-violet spectrophotometer at 203, 247 and 284 nm. respectively, for determination of the contents of melamine and herbicide.

The test system of a further series is weeds. Briefly: Pot test with Douglas-fir seedlings: weed growth on the soil surface. The format is in vivo.
Description: as §1, §2, §3, §4
There were no visible weeds present on the soil at the time of treatment. However, volunteer weed seeds were always present in the atmosphere and daily settled on the soil surface. […]

Where [3] appears, read: Table II (Example 3), soil treatment applied at 0 days, 22.7 kg of 2,4-D/ha.

In the case of `Nc1nc(N)nc(N)n1.O=[N+]([O-])O` [Melamine Nitrate], the “Solubility (g/100g)” value in series [1] is reported as 0.85 g/100g.

As to Potassium Acid Sulfate, the “Solubility (g/100g)” value in series [1] was 51.4 g/100g.

With `N#CNC(=N)N` [Dicyandiamide], the “Solubility (g/100g)” value in series [1] was 2.26 (at 13°C) g/100g.

As to `O=c1[nH]c(=O)[nH]c(=O)[nH]1` [Cyanuric Acid], the “Solubility (g/100g)” value in series [1] is listed as 0.27 g/100g.

In the case of `Nc1nc(N)nc(N)n1` [Melamine], in series [1] (water at 20°C), the “Solubility (g/100g)” value is recorded as 0.50 g/100g.

For `O=C(O)COc1ccc(Cl)cc1Cl` [2,4-D, 2,4-dichlorophenoxyacetic acid], the “mortality or aborted germination” value in the series with Alfalfa seeds (Example 3, (A) pots, planted at 0 days) is on record as 100%. Moreover, in the series on Alfalfa seeds (setting [3]), the “Extent of Germination (B) Pots Planted; 7 Days Later” value is listed as 80% and the “Extent of Germination (C) Pots Planted; 14 Days Later” value amounted to 90%. Moreover, the “Extent of Germination (D) Pots Planted; 21 Days Later” value with Alfalfa seeds (Table II (Example 3), soil treatment applied at 0 days, 22.7 kg of 2,4-D/ha, listed as 2,4-D alone) is “germinating as well as the controls”. In the series with Douglas-fir seedlings, this compound registered a mean height growth of 28 cm. Also, the “height growth greater than the non-treated control” value in the series on Douglas-fir seedlings (control 20 cm) amounted to 40%. In addition, the “herbicide entered the bath” value in series [2] is 100%. Further, the “weed control (in words)” value in the series with weeds (2,4-D 22.7 kg ai/ha, Velpar herbicide 23.8 kg ai/ha) is on record as “initially gave good weed control”. In addition, the “weed population occupied % of the soil surface” value in the series on weeds (by fourteen weeks, 22.7 kg ai/ha) was about 90%.

For the compound `Nc1nc(N)nc(-c2ccccc2)n1` [Benzoguanamine], in series [1] (water, 22°C), the “Solubility (g/100g)” value is 0.06 (22°C) g/100g.

`NC(N)=O` [Urea]: in series [1] (water, at 25°C), the “Solubility (g/100g)” value is 119.3 (at 25°C) g/100g.

Consider `Nc1nc(N)nc(O)n1` [Ammeline], for which, in series [1] (water at 20°C), the “Solubility (g/100g)” value is listed as 0.008 g/100g.

In the case of `Nc1nc(O)nc(O)n1` [Ammelide], the “Solubility (g/100g)” value in series [1] (water at 20°C) is listed as “less than 0.008 g/100g”.

(Values after patent publication EP0135714B1, “Sustained release compositions for biologically active materials” (MELAMINE CHEMICALS, INC., priority 1983, dated 1985).)
